Reference: patent publication US8609635B2, “Fused tricyclic silyl compounds and methods of use thereof for the treatment of viral diseases” (priority 2010, dated 2013)
pEC50: −log10 of the molar value. Where two headings read alike, the source gives them in different places.

Legend:
HCV replicon gt1b_con1 = assay: Cell-based HCV replicon assay (TaqMan), genotype 1b (Con1); conditions: replicon 1b (Con1), replicon RNA by TaqMan, day 3
Description: (§1) Measurement of inhibition by compounds of the present invention was performed using the HCV replicon system. Several different replicons encoding different HCV genotypes or mutations were used. In addition, potency measurements were made using different formats of the replicon assay, including different ways of measurements and different plating formats. See Jan M. Vrolijk et al., A replicons-based bioassay for the measurement of interferons in patients with chronic hepatitis C, 110 J. VIROLOGICAL METHODS 201 (2003); Steven S. Carroll et al., Inhibition of Hepatitis C Virus RNA Replication by 2′-Modified Nucleoside Analogs, 278(14) J. BIOLOGICAL […] 11979 (2003). However, the underlying principles are common to all of these determinations, and are outlined below.
(§2) Compounds of the present invention were assayed for cell-based anti-HCV activity using the following protocol. Replicon cells were seeded at 5000 cells/well in 96-well collagen I-coated Nunc plates in the presence of the test compound. Various concentrations of test compound, typically in 10 serial 2-fold dilutions, were added to the assay mixture, with the starting concentration ranging from 250 μM to 1 μM. The final concentration of DMSO was 0.5%, fetal bovine serum was 5%, in the assay media. Cells were harvested on day 3 by the addition of 1× cell lysis buffer (Ambion cat #8721). The replicon RNA level was measured using real time PCR (TaqMan® assay). The amplicon was located in 5B. The PCR primers were: 5B.2F, […] (SEQ. ID NO. 1); 5B.2R, […] (SEQ. ID NO. 2); the probe sequence was FAM-labeled […] (SEQ. ID NO. 3). GAPDH RNA was used as endogenous control and was amplified in the same reaction as NS5B (multiplex PCR) using primers and VIC-labeled probe recommended by the manufacturer (PE Applied Biosystem). The real-time RT-PCR reactions were run on ABI PRISM 7900HT Sequence Detection System using the following program: 48° C. for 30 minutes, 95° C. for 10 minutes, 40 cycles of 95° C. for 15 sec, 60° C. for 1 minute. The ΔCT values (CT5B-CTGAPDH) were plotted against the concentration of test compound and fitted to the sigmoid dose-response model using XLfit4 (MDL). […] Alternatively, to quantitate the absolute amount of replicon RNA, a standard curve was established by including serially diluted T7 transcripts of replicon RNA in the Taqman assay. All TaqMan® reagents were from PE Applied Biosystems. Such an assay procedure was described in detail in e.g. Malcolm et al., Antimicrobial Agents and Chemotherapy 50: 1013-1020 (2006).
(§3) Wherein gt1a_H77 was prepared as described in Yi et al., J Virol. 2004, 78(15):7904-15; gt1b_con1 was prepared as described in Lohmann et al., Science 1999, 285(5424):110-3; and gt2a_JFH was prepared as described in Kato et al., Gastroenterology. 2003, 125(6):1808-17. Chimeric replicons contain NS5A from patient isolates of genotypes 1a, 1b, 2b, 3a and 4a as indicated.

HCV replicon gt2a_JFH = assay: Cell-based HCV replicon assay (TaqMan), genotype 2a (JFH); conditions: replicon 2a (JFH), replicon RNA by TaqMan, day 3
Description: as §1, §2, §3

[1] = system: HCV chimeric replicon with NS5A of genotype 3a (NC00982); assay: Cell-based HCV replicon assay (TaqMan), chimeric replicon genotype 3a (NC00982); conditions: replicon RNA by TaqMan, day 3
Description: as §1, §2, §3

[2] = system: HCV chimeric replicon with NS5A of genotype 4a (DQ41878); assay: Cell-based HCV replicon assay (TaqMan), chimeric replicon genotype 4a (DQ41878); conditions: Hepatitis C virus, 72 h, read-out: HCV replicon EC50 4a (DQ41878)
Description: as §1, §2, §3

HCV replicon gt1a_H77 = assay: Cell-based HCV replicon assay (TaqMan), genotype 1a (H77); conditions: replicon 1a (H77), replicon RNA by TaqMan, day 3
Description: as §1, §2, §3

[3] = system: HCV replicon 1a (Y93H) mutant; assay: Cell-based HCV replicon assay (TaqMan), genotype 1a mutant Y93H; conditions: read-out: HCV replicon EC50 1a (Y93H)
Description: as §1, §2, §3

[4] = Hepatitis C virus, 72 h, read-out: HCV replicon EC50 3a (NC00982), chimeric replicon 3a (NC00982)

Row | Structure (SMILES) | pEC50 (HCV replicon gt1b_con1; Hepatitis C virus, 72 h) | pEC50 (HCV replicon gt2a_JFH; Hepatitis C virus, 72 h) | pEC50 [1, 4] | pEC50 [2] | pEC50 (HCV replicon gt1a_H77; Hepatitis C virus, 72 h) | pEC50 ([3]; Hepatitis C virus, 72 h) | pEC50 (HCV replicon gt1b_con1) | pEC50 (HCV replicon gt2a_JFH) | pEC50 ([1]; chimeric replicon 3a (NC00982), read-out: HCV replicon EC50 3a (NC00982)) | pEC50 ([3]; replicon 1a mutant Y93H, replicon RNA by TaqMan, day 3) | pEC50 (HCV replicon gt1a_H77)
1 | COC(=O)NC(C(=O)N1CCCC1c1ncc(-c2ccc(-c3ccc4c(ccc5nc([C@@H]6C[Si](C)(C)CN6C(=O)C(NC(=O)OC)C(C)C)[nH]c54)c3)cc2)[nH]1)C(C)C (stereo partly drawn) [Compound 1] | 11.52 | 11.52 | 9.59 | 10.17 | 11.52 |  |  |  |  |  | 
2 | COC(=O)NC(C(=O)N1C[Si](C)(C)CC1c1ncc(-c2ccc(-c3ccc4c(ccc5nc([C@@H]6CCCN6C(=O)C(NC(=O)OC)C(C)C)[nH]c54)c3)cc2)[nH]1)C(C)C (stereo partly drawn) [Compound 2] | 11.40 | 10.72 | 10.30 |  | 11.00 |  |  |  |  |  | 
3 | COC(=O)NC(C(=O)N1C2CCC(C2)C1c1ncc(-c2ccc(-c3ccc4c(ccc5nc([C@@H]6C[Si](C)(C)CN6C(=O)C(NC(=O)OC)C(C)C)[nH]c54)c3)cc2)[nH]1)C(C)C (stereo partly drawn) [Compound 15] | 10.96 | 9.92 | 9.00 |  | 10.06 | 6.88 |  |  |  |  | 
4 | COC(=O)NC(C(=O)N1C[Si](C)(C)CC1c1ncc(-c2ccc(-c3ccc4c(ccc5nc([C@@H]6C7CCC(C7)N6C(=O)C(NC(=O)OC)C(C)C)[nH]c54)c3)cc2)[nH]1)C(C)C (stereo partly drawn) [Compound 16] | 11.40 | 10.22 | 9.64 |  | 10.40 | 6.84 |  |  |  |  | 
5 | COC(=O)NC(C(=O)N1C[Si](C)(C)CC1c1ncc(-c2ccc(-c3ccc4c(ccc5nc([C@@H]6CCCN6C(=O)C(NC(=O)OC)C(C)C)[nH]c54)c3)s2)[nH]1)C(C)C (stereo partly drawn) [Compound 20] | 11.40 | 9.52 | 9.59 |  | 9.85 | 6.04 |  |  |  |  | 
6 | COC(=O)N[C@H](C(=O)N1CC(F)(F)C[C@H]1c1ncc(-c2ccc3oc(-c4ccc5c(ccc6nc([C@@H]7C[Si](C)(C)CN7C(=O)[C@@H](NC(=O)OC)C(C)C)[nH]c65)c4)cc3c2)[nH]1)C(C)C [Compound 42] |  |  |  |  |  |  | 11.30 | < 8.00 | 7.94 | 6.99 | 10.92
7 | COC(=O)N[C@H](C(=O)N1C[Si](C)(C)C[C@H]1c1ncc(-c2ccc(-c3ccc4c(ccc5nc([C@@H]6CCCN6C(=O)[C@@H](NC(=O)OC)C(C)C)[nH]c54)c3)cc2OCCO)[nH]1)C(C)C [Compound 44] | 11.15 | < 8.00 | 7.51 |  | < 9.00 | 5.86 |  |  |  |  | 
8 | COC(=O)N[C@H](C(=O)N1C[Si](C)(C)C[C@H]1c1ncc(-c2ccc(-c3ccc4c(ccc5nc([C@@H]6CCCN6C(=O)[C@@H](NC(=O)OC)C(C)C)[nH]c54)c3)cc2OCCOC(C)=O)[nH]1)C(C)C [Compound 45] | 11.05 | < 8.00 | 7.28 |  | < 9.00 | 5.58 |  |  |  |  | 
9 | COC(=O)N[C@H](C(=O)N1C[Si](C)(C)C[C@H]1c1ncc(-c2ccc(-c3ccc4c(ccc5nc([C@@H]6CCCN6C(=O)[C@@H](NC(=O)OC)C(C)C)[nH]c54)c3)cc2OC)[nH]1)C(C)C [Compound 46] | 11.40 | 9.22 | 8.62 |  | 9.59 | 6.30 |  |  |  |  | 
10 | COC(=O)N[C@H](C(=O)N1C[Si](C)(C)C[C@H]1c1ncc(-c2ccc(-c3ccc4c(ccc5nc([C@@H]6CCCN6C(=O)[C@@H](NC(=O)OC)C(C)C)[nH]c54)c3)cc2C2CC2)[nH]1)C(C)C [Compound 47] | 11.15 | 8.77 | 8.26 |  | 9.40 | 5.80 |  |  |  |  | 
11 | COC(=O)N[C@H](C(=O)N1C[Si](C)(C)C[C@H]1c1ncc(-c2ccc(-c3ccc4c(ccc5nc([C@@H]6CCCN6C(=O)[C@@H](NC(=O)OC)C(C)C)[nH]c54)c3)cc2F)[nH]1)C(C)C [Compound 48] | 11.40 | 10.15 | 9.60 |  | 10.30 | 6.48 |  |  |  |  | 
12 | COC(=O)N[C@H](C(=O)N1C[Si](C)(C)C[C@H]1c1ncc(-c2ccc(-c3ccc4c(ccc5nc([C@@H]6CCCN6C(=O)[C@@H](NC(=O)OC)C(C)C)[nH]c54)c3)nc2)[nH]1)C(C)C [Compound 49] | 10.85 | 10.43 | 9.70 |  | 10.40 | 6.73 |  |  |  |  | 
13 | COC(=O)N[C@H](C(=O)N1C[Si](C)(C)C[C@H]1c1ncc(-c2ccc(-c3ccc4c(ccc5nc([C@@H]6CCCN6C(=O)[C@@H](NC(=O)OC)C(C)C)[nH]c54)c3)cc2-c2cccs2)[nH]1)C(C)C [Compound 50] | 11.10 | 8.79 | 8.52 |  | 9.30 | 5.94 |  |  |  |  | 
14 | COC(=O)N[C@H](C(=O)N1C[Si](C)(C)C[C@H]1c1ncc(-c2ccc(-c3ccc4c(ccc5nc([C@@H]6CCCN6C(=O)[C@@H](NC(=O)OC)C(C)C)[nH]c54)c3)cc2-c2ccncc2)[nH]1)C(C)C [Compound 51] | 10.30 | < 8.00 | < 7.00 |  | < 9.00 | 5.07 |  |  |  |  | 
15 | COC(=O)N[C@H](C(=O)N1C[Si](C)(C)C[C@H]1c1ncc(-c2ccc(-c3ccc4c(ccc5nc([C@@H]6C[C@@H](F)CN6C(=O)[C@@H](NC(=O)OC)C(C)C)[nH]c54)c3)c(F)c2)[nH]1)C(C)C [Compound 57] | > 10.30 | 10.16 | 9.10 | 9.19 | 10.17 | 7.30 |  |  |  |  | 
16 | COC(=O)N[C@H](C(=O)N1C[Si](C)(C)C[C@H]1c1ncc(-c2ccc(-c3ccc4c(ccc5nc([C@@H]6CC(F)(F)CN6C(=O)[C@@H](NC(=O)OC)C(C)C)[nH]c54)c3)c(F)c2)[nH]1)C(C)C [Compound 58] | 11.70 | 9.82 | 9.10 | 9.44 | 10.52 | 6.93 |  |  |  |  | 
17 | COC(=O)N[C@H](C(=O)N1CC(F)(F)C[C@H]1c1ncc(-c2ccc(-c3ccc4c(ccc5nc([C@@H]6C[Si](C)(C)CN6C(=O)[C@@H](NC(=O)OC)C(C)C)[nH]c54)c3)c(F)c2)[nH]1)C(C)C [Compound 60] | 11.52 | 10.05 | 8.54 | 9.89 | 10.22 | 7.02 |  |  |  |  | 
18 | COC(=O)N[C@H](C(=O)N1CC(O)C[C@H]1c1ncc(-c2ccc(-c3ccc4c(ccc5nc([C@@H]6C[Si](C)(C)CN6C(=O)[C@@H](NC(=O)OC)C(C)C)[nH]c54)c3)cc2)[nH]1)C(C)C (stereo partly drawn) [Compound 65] | 11.40 | 9.52 | 8.77 |  | 10.22 | 7.36 |  |  |  |  | 
19 | COC(=O)N[C@H](C(=O)N1C[Si](C)(C)C[C@H]1c1ncc(-c2ccc(-c3ccc4c(ccc5nc([C@@H]6CC(F)(F)CN6C(=O)[C@@H](NC(=O)OC)C(C)C)[nH]c54)c3)cc2F)[nH]1)C(C)C [Compound 71] | > 11.70 | 9.35 | 9.05 |  | 9.92 | 6.73 |  |  |  |  | 
20 | COC(=O)N[C@H](C(=O)N1C[Si](C)(C)C[C@H]1c1ncc(-c2ccc(-c3ccc4c(ccc5nc([C@@H]6CC(F)(F)CN6C(=O)[C@@H](NC(=O)OC)C(C)C)[nH]c54)c3)cn2)[nH]1)C(C)C [Compound 72] | 11.40 | 9.30 | 8.62 |  | 10.00 | 6.61 |  |  |  |  | 
